Assay results taken from ChEMBL document CHEMBL1201862, “PubChem BioAssay data set” (2004).
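Step 1: Grow cells in 96-well plates. Step 2: Expose to compound for 48 hours at 5 concentrations. Step 3: Interpolate endpoints linearly; if unreached, use highest concentration. GI50 is the concentration that inhibits growth by half.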 The source made the active and inactive calls. Rule as the data show it: active = GI50 up to about 1.1 µM and inactive = higher.

Key:
Test in all cases: NCI anticancer screen, dose series, 48 h
UACC-257 = tested on: UACC-257
KM12 = tested on: KM12
A549 = tested on: A549
OVCAR-3 = tested on: OVCAR-3
MDA-MB-435 = tested on: MDA-MB-435
SF-295 = tested on: SF-295
NCI-H460 = tested on: NCI-H460
SK-MEL-28 = tested on: SK-MEL-28
EKVX = tested on: EKVX
ACHN = tested on: ACHN
NCI-H23 = tested on: NCI-H23
SF-539 = tested on: SF-539
U-251 = tested on: U-251
HL-60 = tested on: HL-60
SK-MEL-5 = tested on: SK-MEL-5
SW-620 = tested on: SW-620
NCI-H522 = tested on: NCI-H522
HCT-15 = tested on: HCT-15
SNB-75 = tested on: SNB-75
Hs-578T = tested on: Hs-578T

Structure (SMILES)	GI50 (UACC-257)	GI50 (KM12)	GI50 (A549)	GI50 (OVCAR-3)	GI50 (MDA-MB-435)	GI50 (SF-295)	GI50 (NCI-H460)	GI50 (SK-MEL-28)	GI50 (EKVX)	GI50 (ACHN)	GI50 (NCI-H23)	GI50 (SF-539)	GI50 (U-251)	GI50 (HL-60)	GI50 (SK-MEL-5)	GI50 (SW-620)	GI50 (NCI-H522)	GI50 (HCT-15)	GI50 (SNB-75)	GI50 (Hs-578T)
CCOC(=O)c1sc2nc(SC)nc(Nc3ccc4c(c3)OCO4)c2c1N	> 100 µM (inactive)	> 100 µM (inactive)	68.9 µM (inactive)	37.4 µM (inactive)	> 100 µM (inactive)	16 µM (inactive)	> 100 µM (inactive)	1.91 µM (inactive)	31.9 µM (inactive)	19.9 µM (inactive)	53 µM (inactive)	32.9 µM (inactive)	32.9 µM (inactive)	> 100 µM (inactive)	44.1 µM (inactive)	4.34 µM (inactive)	46.7 µM (inactive)	0.706 µM		
Fc1sc2c(c1F)C1CCC2C1 (stereo unspecified)	40.9 µM (inactive)	> 100 µM (inactive)	> 100 µM (inactive)	41.9 µM (inactive)	56.4 µM (inactive)	> 100 µM (inactive)	> 100 µM (inactive)	> 100 µM (inactive)	> 100 µM (inactive)	> 100 µM (inactive)	58.3 µM (inactive)	> 100 µM (inactive)	97.7 µM (inactive)		> 100 µM (inactive)	> 100 µM (inactive)	> 100 µM (inactive)	85.9 µM	> 100 µM (inactive)	19.7 µM (inactive)
Clc1cccc(-c2nc3cccc4c3n2Cc2ncccc2-4)c1	> 100 µM (inactive)	> 100 µM (inactive)	21.9 µM (inactive)	32.1 µM (inactive)	> 100 µM (inactive)	41.6 µM (inactive)	6.67 µM (inactive)	> 100 µM (inactive)	> 100 µM (inactive)	8.2 µM (inactive)	> 100 µM (inactive)	41.8 µM (inactive)	30.3 µM (inactive)			> 100 µM (inactive)	> 100 µM (inactive)	> 100 µM	9.04 µM (inactive)	
COc1cc2c[n+]3c4c(c2c(OC)c1OC)CCCC4CC3 (stereo unspecified)	35.6 µM (inactive)	30.1 µM (inactive)	> 100 µM (inactive)	66.5 µM (inactive)	> 100 µM (inactive)	> 100 µM (inactive)	> 100 µM (inactive)	> 100 µM (inactive)	> 100 µM (inactive)	> 100 µM (inactive)	34.8 µM (inactive)		17 µM (inactive)		19.3 µM (inactive)	> 100 µM (inactive)	30.8 µM (inactive)	> 100 µM		9.2 µM (inactive)
CN(C)C1(c2cc3ccccc3s2)CCCCC1	28.1 µM (inactive)	36.5 µM (inactive)	51.2 µM (inactive)	48.6 µM (inactive)	35.7 µM (inactive)	26.6 µM (inactive)	29.2 µM (inactive)		> 100 µM (inactive)	51.2 µM (inactive)	49.8 µM (inactive)	50.1 µM (inactive)	43.6 µM (inactive)	< 0.01 µM (active)	17.4 µM (inactive)	0.125 µM (active)	16.7 µM (inactive)	37.4 µM	32.6 µM (inactive)	
CC(C)C1CCC(=O)CC1CCCCC1CC(=O)CC1O[Si](C)(C)C(C)(C)C (stereo unspecified)	6.4 µM (inactive)	2.76 µM (inactive)	6.03 µM (inactive)	14.4 µM (inactive)	2.95 µM (inactive)	9.62 µM (inactive)	7.46 µM (inactive)	5.92 µM (inactive)	15.7 µM (inactive)	4.3 µM (inactive)	15.5 µM (inactive)	4.66 µM (inactive)	2.32 µM (inactive)		3.05 µM (inactive)	4.91 µM (inactive)	2.1 µM (inactive)	3.44 µM	13.2 µM (inactive)	3.03 µM (inactive)
Nc1nc(Cl)cc(Nc2cc(Cl)cc(Cl)c2)n1	18.5 µM (inactive)	20.9 µM (inactive)	24.8 µM (inactive)	22.8 µM (inactive)	20.1 µM (inactive)	21.1 µM (inactive)	18.2 µM (inactive)		21.3 µM (inactive)	24.9 µM (inactive)	23.1 µM (inactive)	17 µM (inactive)	21.2 µM (inactive)		19.8 µM (inactive)	22.4 µM (inactive)	10.9 µM (inactive)	20.7 µM	21.7 µM (inactive)	16.8 µM (inactive)
Cn1c(=O)c2nc[nH]c2n(C)c1=O [THEOPHYLLINE]	> 100 µM (inactive)	> 100 µM (inactive)	> 100 µM (inactive)	> 100 µM (inactive)			> 100 µM (inactive)	> 100 µM (inactive)	> 100 µM (inactive)	> 100 µM (inactive)	> 100 µM (inactive)			> 100 µM (inactive)	> 100 µM (inactive)	> 100 µM (inactive)	> 100 µM (inactive)	> 100 µM		> 100 µM (inactive)
